Data set [1] has as its target T1, Microphthalmia-associated transcription factor (Homo sapiens, UniProt O75030).
T1 sequence (O75030 whole entry): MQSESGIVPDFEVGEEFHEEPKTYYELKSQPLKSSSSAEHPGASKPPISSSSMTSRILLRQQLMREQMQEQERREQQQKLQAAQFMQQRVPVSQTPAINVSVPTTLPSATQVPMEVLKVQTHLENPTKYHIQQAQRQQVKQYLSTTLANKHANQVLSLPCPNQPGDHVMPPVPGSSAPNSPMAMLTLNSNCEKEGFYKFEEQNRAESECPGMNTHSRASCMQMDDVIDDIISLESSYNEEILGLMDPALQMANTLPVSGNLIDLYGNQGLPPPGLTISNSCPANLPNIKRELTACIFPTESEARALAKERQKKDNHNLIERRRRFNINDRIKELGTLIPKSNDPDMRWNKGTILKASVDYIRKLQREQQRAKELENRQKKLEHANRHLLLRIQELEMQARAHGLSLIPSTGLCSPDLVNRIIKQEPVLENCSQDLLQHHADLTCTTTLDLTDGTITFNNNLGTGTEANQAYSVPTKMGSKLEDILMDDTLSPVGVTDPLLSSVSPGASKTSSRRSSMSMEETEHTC
The data set can be described thus: reducers of TRPM1 reporter luminescence, concentration series – cell-based, SK-MEL-5, cherry-picked, set 3, MITF inhibitor project, dose response (AID 493073).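 Further: SK-MEL-5 melanoma cells with luciferase driven by the MITF target TRPM1 promoter.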 The class given is functional.

Another data set concerns A-375. Kind of data set: proliferation inhibition in MITF-low A375 cells – cell-based, cherry-pick samples, set 2, counter-screen for MITF modulator project, dose response (AID 540335). Type of data set: functional. Particulars: Homo sapiens. (In general: The purpose of a counterscreen is to sort out artefacts and off-target activity.)
For a further data set, the target named is Tumor necrosis factor (Homo sapiens, UniProt P01375). The data set can be described thus: analog potency on TNFa NF-kB signaling – cell-based, revised, SAR follow-up (AID 2337). The class given is functional.
Tumor necrosis factor, sequence (P01375 whole entry, the tested form may be a part): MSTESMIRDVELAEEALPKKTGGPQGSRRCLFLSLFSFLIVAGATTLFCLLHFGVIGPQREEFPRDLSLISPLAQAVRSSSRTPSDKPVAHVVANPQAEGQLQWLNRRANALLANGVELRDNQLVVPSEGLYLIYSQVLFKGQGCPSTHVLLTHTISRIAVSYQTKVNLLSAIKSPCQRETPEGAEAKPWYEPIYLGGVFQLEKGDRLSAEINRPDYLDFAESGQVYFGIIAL
Data set [2] concerns the target Nucleotide-binding oligomerization domain-containing protein 1 (Homo sapiens, UniProt Q9Y239). The data set can be described thus: blockers of NOD1 pathway activity – revised, SAR follow-up (AID 2333). The class given is functional.
In data set [3] the test system is HEK293. Kind of data set: cells. Particulars: Homo sapiens.
The next data set deals with HeLa. The data set can be described thus: ATP-based viability loss in HeLa cells – cell-based, CellTiter-Glo luminescence, cherry-pick samples, cytotoxicity control for MITF activator project, dose response (AID 540259). Type of data set: functional. As to conditions: Homo sapiens.
The target of a further data set is Cytochrome P450 2D6 (Homo sapiens, UniProt P10635).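 Further: CYP2D6 member of a cytochrome P450 panel assay.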
Cytochrome P450 2D6, sequence (P10635 whole entry): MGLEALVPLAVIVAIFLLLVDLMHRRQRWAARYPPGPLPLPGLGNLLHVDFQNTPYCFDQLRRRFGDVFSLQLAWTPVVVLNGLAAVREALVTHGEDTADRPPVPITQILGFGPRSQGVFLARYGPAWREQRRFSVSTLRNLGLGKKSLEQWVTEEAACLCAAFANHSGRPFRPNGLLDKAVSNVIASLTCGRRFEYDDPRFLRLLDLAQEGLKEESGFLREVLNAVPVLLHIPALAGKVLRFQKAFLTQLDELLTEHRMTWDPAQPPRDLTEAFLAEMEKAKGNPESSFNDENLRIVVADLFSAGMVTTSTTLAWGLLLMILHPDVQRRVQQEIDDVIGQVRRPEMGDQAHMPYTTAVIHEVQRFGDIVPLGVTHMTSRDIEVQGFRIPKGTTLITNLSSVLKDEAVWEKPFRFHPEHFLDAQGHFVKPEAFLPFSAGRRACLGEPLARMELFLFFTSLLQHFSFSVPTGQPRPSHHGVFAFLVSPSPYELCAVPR
The target in the next data set is Trypsin (Sus scrofa, UniProt P00761). Kind of data set: trypsin protease activity blockade – biochemical, quenched peptide fluorescence, cherry-pick, selectivity assay for Rce1 protease inhibitor project, dose response (AID 488789).
Trypsin, sequence (P00761 whole entry): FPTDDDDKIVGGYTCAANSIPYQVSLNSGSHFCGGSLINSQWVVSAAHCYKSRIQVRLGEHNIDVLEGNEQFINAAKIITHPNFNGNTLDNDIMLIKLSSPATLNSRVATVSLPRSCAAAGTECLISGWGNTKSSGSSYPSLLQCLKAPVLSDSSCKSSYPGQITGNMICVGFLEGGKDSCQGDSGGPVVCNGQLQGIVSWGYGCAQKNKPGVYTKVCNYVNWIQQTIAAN
The target of data set [4] is CAAX prenyl protease 2 (Homo sapiens, UniProt Q9Y256). The data set can be described thus: inhibition of Ras-converting CAAX protease Rce1 – biochemical, yeast membranes, quenched-peptide fluorescence, cherry-pick, dose response (AID 588849).
In data set [5] the target is T2, CAAX prenyl protease 2 (Saccharomyces cerevisiae S288c, UniProt Q03530).
T2 sequence (Q03530 whole entry): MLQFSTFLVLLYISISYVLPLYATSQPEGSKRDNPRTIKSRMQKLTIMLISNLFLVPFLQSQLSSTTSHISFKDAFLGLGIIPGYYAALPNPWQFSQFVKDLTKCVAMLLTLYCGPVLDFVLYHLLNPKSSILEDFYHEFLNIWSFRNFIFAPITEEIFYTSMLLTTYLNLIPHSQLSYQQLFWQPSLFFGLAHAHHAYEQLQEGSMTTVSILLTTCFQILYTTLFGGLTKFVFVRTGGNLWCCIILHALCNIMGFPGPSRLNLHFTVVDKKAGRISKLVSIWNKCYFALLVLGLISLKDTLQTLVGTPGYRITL
The class given is biochemical.

Data set [6] deals with T3, Delta-type opioid receptor (Homo sapiens, UniProt P41143). Kind of data set: HTS Image-Based Screen for Antagonists of the DOR Receptor. [Related pubchem assays (depositor defined):AID1777, AID1785, AID1786, AID2133]. The class given is functional.
T3 sequence (P41143 whole entry): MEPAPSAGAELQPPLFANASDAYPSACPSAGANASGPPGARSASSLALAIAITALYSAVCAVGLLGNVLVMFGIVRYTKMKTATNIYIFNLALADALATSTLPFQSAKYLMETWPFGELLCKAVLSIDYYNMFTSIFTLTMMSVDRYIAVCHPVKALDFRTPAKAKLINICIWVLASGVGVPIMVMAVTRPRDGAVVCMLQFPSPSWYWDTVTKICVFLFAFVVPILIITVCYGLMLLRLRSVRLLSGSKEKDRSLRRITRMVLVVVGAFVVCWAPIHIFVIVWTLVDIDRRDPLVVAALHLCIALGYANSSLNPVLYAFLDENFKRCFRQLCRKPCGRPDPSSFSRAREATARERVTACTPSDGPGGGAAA
The target of the next data set is Mu-type opioid receptor (Homo sapiens, UniProt P35372). Kind of data set: HTS Image-Based Screen for Agonists of the MOR Receptor. [Related pubchem assays (depositor defined):AID1777, AID1785, AID1786, AID2133]. Type of data set: functional.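 Further: imaging of beta-arrestin GFP recruitment into spots after receptor activation.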
Data set [7] concerns the target T3, Delta-type opioid receptor. The data set can be described thus: HTS Image-Based Screen for Agonists of the DOR Receptor. [Related pubchem assays (depositor defined):AID1777, AID1786, AID2133]. The class given is functional.
Data set [8] concerns the target T4, Beta-galactosidase (Escherichia coli, UniProt Q8VNN2). Kind of data set: PubChem AID 485352. The class given is functional.
The nature of data set [9]: Trypanosoma cruzi growth suppression in host cells – NIH3T3 host cells, beta-gal luminescence, confirmation (AID 2044).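 Further: intracellular parasites grown in NIH/3T3 mouse fibroblasts as host cells; luminescent beta-galactosidase reporter signal from transgenic T. cruzi replicating inside host cells; inhibitors lower the luminescence signal.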 The class given is functional, cell-based.
The target in data set [10] is T5, Type-1 angiotensin II receptor (Homo sapiens, UniProt P30556).
T5 sequence (P30556 whole entry): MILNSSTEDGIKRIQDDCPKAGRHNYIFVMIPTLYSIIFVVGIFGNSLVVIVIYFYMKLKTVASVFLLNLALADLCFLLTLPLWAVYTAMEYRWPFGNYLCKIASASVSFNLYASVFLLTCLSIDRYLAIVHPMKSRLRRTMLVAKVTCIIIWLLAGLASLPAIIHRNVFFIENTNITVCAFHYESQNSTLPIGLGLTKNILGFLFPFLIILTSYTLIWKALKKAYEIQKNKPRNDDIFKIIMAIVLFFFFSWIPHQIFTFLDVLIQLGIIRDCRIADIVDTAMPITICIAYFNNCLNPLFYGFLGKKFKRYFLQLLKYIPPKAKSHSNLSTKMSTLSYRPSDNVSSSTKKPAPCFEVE
The data set can be described thus: antagonism of angiotensin II type 1 receptor – cell-based, uHTS hits, selectivity assay for APJ receptor antagonist project, dose response (AID 463214).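 Further: antagonist potency against angiotensin II stimulated AT1 response.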 The class given is functional.

Data set [11] concerns the target T6, Kappa-type opioid receptor (Homo sapiens, UniProt P41145). The class given is functional.
Data set [12] in a line: NIH3T3 cell viability loss – ATP luminescence, mouse fibroblasts, counter-screen, dose response (AID 2010).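 Further: cells exposed to compound for about 90 hours before reading.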 The class given is functional, cell-based.
The target of data set [13] is T4, Beta-galactosidase. The class given is functional.
The target in data set [14] is T6, Kappa-type opioid receptor. Type of data set: functional. This is another data set of the same source.
Data set [15] deals with Voltage-gated inwardly rectifying potassium channel KCNH2 (Homo sapiens, UniProt Q12809). As to conditions: Potency.
Voltage-gated inwardly rectifying potassium channel KCNH2, sequence (Q12809 whole entry): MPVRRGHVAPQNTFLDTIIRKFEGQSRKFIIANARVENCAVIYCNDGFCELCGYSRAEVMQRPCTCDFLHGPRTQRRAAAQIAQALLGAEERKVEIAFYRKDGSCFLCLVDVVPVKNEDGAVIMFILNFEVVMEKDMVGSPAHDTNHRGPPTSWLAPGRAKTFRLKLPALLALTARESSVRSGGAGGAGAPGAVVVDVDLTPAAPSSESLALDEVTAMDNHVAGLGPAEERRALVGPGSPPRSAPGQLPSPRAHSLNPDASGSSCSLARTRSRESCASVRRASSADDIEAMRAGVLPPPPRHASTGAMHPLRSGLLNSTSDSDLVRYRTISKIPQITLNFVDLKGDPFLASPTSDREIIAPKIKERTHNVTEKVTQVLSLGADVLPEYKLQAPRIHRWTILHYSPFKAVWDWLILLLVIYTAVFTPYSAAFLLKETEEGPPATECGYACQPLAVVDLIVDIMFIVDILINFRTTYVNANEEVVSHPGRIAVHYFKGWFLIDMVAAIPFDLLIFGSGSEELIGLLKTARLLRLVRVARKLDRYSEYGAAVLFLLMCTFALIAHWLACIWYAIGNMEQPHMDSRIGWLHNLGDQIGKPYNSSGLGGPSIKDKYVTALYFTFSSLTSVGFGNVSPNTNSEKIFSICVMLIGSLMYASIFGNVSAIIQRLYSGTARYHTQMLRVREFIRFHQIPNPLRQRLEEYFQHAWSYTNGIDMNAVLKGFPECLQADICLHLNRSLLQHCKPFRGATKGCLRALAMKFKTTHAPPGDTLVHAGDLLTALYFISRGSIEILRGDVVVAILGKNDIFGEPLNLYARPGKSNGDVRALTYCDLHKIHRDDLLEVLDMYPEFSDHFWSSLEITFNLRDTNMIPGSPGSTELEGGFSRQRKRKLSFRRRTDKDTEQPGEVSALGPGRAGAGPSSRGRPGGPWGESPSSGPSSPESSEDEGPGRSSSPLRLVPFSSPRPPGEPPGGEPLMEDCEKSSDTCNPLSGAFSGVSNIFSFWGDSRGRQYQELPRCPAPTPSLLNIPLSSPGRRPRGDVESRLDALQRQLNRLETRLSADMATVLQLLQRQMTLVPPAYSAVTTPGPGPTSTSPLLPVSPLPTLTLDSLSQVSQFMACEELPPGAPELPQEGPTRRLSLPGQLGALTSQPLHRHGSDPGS
Data set [16] deals with BJ. Kind of data set: BJ-TERT fibroblast viability loss – cell-based, RAS-independent, luminescence, dose response (AID 1933). Type of data set: functional. As to conditions: Homo sapiens.
Data set [17] has as its system BJ. The data set can be described thus: cells. The class given is functional, cell-based. As to conditions: Homo sapiens.
Data set [18] concerns BJ. The data set can be described thus: BJ-TERT-LT-ST fibroblast viability loss – cell-based, RAS-independent, luminescence, dose response (AID 1935).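 Further: BJ fibroblasts immortalized with TERT plus LT and ST oncogenes.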 Type of data set: functional. Particulars: Homo sapiens.
The nature of data set [19]: DRD fibroblast viability loss – cell-based, non-viral oncogenic, luminescence, dose response (AID 1934). The class given is functional. As to conditions: Homo sapiens.
The target in data set [20] is T7, Heat shock factor protein 1 (Mus musculus, UniProt P38532).
T7 sequence (P38532 whole entry): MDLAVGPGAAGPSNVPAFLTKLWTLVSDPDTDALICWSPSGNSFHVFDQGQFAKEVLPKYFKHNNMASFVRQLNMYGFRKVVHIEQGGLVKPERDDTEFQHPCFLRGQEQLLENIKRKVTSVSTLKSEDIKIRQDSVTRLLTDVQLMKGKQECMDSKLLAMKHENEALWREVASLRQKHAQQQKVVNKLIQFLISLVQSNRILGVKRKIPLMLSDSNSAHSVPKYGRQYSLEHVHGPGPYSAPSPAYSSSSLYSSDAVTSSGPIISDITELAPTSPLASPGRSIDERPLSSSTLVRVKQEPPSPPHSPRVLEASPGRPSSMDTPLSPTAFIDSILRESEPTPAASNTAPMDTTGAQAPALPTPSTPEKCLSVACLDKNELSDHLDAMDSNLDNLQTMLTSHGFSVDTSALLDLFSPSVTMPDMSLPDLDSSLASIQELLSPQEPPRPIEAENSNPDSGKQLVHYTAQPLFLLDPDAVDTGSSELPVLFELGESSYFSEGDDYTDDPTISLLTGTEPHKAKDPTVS
The data set can be described thus: enhancement of HSF1-driven luciferase signal – cell-based, NIH3T3, luminescence, dose retest, confirmation (AID 435004).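 Further: stress induced by proteasome inhibitor MG132 added 30 min after compound; luciferase reporter driven by HSF1 response element in NIH3T3 cells; actives raise luminescence as potentiators of the MG132 stress response.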 The class given is functional.

Data set [21] relates to HEK293. The data set can be described thus: cells. As to conditions: Homo sapiens. This is another data set of the same source.
Data set [22] relates to HEK293. Kind of data set: cells. As to conditions: Homo sapiens. This is another data set of the same source.

Calls of active or inactive are those of the source. A value given as a limit tells only on which side of the number the result lay.

Nucleotide-binding oligomerization domain-containing protein 1, sequence (Q9Y239 whole entry, the tested form may be a part): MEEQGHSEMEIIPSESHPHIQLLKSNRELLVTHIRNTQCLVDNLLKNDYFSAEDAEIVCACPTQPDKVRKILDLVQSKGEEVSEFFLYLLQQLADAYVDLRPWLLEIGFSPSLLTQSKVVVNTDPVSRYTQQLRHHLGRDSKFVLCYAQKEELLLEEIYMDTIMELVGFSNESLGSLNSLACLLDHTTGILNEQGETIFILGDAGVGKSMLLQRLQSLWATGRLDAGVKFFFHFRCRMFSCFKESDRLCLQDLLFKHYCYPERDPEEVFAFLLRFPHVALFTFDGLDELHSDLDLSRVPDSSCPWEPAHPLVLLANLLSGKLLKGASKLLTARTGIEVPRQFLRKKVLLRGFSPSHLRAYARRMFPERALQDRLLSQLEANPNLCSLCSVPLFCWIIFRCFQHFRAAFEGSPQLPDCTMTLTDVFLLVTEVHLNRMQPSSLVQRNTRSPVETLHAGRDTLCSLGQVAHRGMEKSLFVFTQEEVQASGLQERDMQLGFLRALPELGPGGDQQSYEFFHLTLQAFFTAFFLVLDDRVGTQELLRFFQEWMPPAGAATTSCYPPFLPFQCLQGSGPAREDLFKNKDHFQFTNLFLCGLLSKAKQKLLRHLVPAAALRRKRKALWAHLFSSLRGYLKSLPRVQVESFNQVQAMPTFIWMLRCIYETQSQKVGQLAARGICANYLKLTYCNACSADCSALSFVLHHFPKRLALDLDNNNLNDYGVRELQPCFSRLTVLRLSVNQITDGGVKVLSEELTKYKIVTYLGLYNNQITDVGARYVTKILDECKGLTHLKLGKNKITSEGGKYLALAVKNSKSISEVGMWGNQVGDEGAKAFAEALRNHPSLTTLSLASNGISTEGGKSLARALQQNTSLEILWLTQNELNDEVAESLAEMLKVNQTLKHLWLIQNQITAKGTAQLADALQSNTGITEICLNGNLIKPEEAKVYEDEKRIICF
T6 sequence (P41145 whole entry): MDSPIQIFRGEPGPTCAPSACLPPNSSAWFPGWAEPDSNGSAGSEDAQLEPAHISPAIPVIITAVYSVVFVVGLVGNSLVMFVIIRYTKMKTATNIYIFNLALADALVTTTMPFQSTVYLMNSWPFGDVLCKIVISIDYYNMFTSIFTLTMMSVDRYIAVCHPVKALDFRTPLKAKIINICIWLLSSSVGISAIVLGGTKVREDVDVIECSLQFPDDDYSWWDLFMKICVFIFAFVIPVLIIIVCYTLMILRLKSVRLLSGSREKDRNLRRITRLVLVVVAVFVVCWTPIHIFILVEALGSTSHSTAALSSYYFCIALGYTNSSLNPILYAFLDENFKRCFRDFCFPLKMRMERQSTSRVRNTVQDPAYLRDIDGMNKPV
T4 sequence (Q8VNN2 whole entry): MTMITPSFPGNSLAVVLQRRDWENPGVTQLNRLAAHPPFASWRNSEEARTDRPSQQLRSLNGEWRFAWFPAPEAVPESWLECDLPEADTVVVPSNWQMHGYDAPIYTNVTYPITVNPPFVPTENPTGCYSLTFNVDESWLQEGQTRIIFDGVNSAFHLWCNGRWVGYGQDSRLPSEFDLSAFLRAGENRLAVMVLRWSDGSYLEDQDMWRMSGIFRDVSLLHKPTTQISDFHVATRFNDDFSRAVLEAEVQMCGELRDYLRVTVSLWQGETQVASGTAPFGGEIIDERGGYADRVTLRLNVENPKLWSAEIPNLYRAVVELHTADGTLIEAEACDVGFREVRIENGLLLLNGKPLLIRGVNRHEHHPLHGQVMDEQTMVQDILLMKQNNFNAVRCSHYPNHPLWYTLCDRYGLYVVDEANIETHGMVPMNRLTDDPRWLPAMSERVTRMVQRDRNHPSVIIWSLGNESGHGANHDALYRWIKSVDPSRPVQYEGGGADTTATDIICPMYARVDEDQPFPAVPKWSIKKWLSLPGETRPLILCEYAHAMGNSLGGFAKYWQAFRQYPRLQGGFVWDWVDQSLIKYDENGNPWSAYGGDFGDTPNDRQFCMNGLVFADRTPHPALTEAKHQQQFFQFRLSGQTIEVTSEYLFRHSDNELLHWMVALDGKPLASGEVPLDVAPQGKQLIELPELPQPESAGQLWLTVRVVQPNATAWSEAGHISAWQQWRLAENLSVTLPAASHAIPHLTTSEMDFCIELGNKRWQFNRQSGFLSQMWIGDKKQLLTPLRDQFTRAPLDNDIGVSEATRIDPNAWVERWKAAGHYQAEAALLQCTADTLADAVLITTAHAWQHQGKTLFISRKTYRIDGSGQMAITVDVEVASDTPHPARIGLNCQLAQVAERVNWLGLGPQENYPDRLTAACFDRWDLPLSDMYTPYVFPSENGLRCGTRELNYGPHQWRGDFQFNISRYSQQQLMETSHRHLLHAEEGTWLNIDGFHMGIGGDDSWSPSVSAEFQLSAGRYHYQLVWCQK

As to `Cc1ccccc1NC(=O)Cc1nc(COC(=O)c2ccc(S(C)(=O)=O)c([N+](=O)[O-])c2)cs1`, the AC50 (as a rule, the concentration at which the activity in the assay is half-maximal) was 12.8 µM (active) in data set [1] and 28.2 µM (active) in the data set on A-375.
Take `Cc1ccc(N2CCN(S(=O)(=O)c3ccc4c(c3)CC(C)N4C(=O)C3CC3)CC2)cc1` (stereo unspecified): the IC50 (at Tumor necrosis factor; in [2]; with HEK293 [3]) was > 20 µM (inactive) in each case.
Turning to `CC(c1ccccc1)c1nnc(NC(=O)Nc2ccccc2F)s1` (stereo unspecified), the AC50 with HeLa is 52.5 µM (active).
Consider `CCN1CCN(c2cc(=O)n(-c3cc(Cl)ccc3C)c(=O)[nH]2)CC1`, for which, on Cytochrome P450 2D6, the AC50 result is given as “inconclusive”.
In the case of `COc1ccccc1Oc1c(C)oc2c(CN3CCN(CCO)CC3)c(O)ccc2c1=O`, the AC50 is 5.25 µM (active) on Trypsin and 2.48 µM (active) at CAAX prenyl protease 2 [4].
In the case of `CC(C)(C)C(=O)C[n+]1ccc(C(N)=O)cc1`, the AC50 was 13.4 µM (active) on Trypsin, 15.1 µM (active) on CAAX prenyl protease 2 [5] and 12.5 µM (active) at CAAX prenyl protease 2 [4].
Regarding `CCOc1ccc(C(=O)Nc2ccc(CN3CCc4ccccc4C3)cc2)cc1`, the IC50 (on Tumor necrosis factor; in data set [2]; with HEK293 [3]) was > 20 µM (inactive) each time.
For the molecule `NCCCc1c(-c2ccccc2)nc(N)[nH]c1=O`, the AC50 result at Cytochrome P450 2D6 is “inconclusive”.
Regarding `Cc1ccc2oc(Nc3nc(O)cc(-c4ccccc4)n3)nc2c1`, the IC50 (as a rule, the point on the concentration scale where inhibition reaches its midpoint) was > 32 µM (inactive) in data set [6], 3.99 µM (active) in [10], 11.9 µM (active) in [11] and over 32 µM in data set [14]. Besides, the EC50 – broadly, the midpoint of the concentration-response curve – is > 32 µM (inactive) at Mu-type opioid receptor; > 32 µM (inactive) in data set [7]; > 40 µM (inactive) at Beta-galactosidase [8]; 1.62 µM (active) in data set [9]; > 30 µM (not active) in [12]; > 31.5 µM (inactive) on Beta-galactosidase [13].
Take `COc1cccc(NC(=O)Nc2ccc3c(c2)nnn3C)c1`: in the data set with HeLa, the AC50 is > 350 µM (inactive).
As to `COc1cc(CC(C)N)c(OC)cc1I` (stereo unspecified), the AC50 in data set [15] is 15.8 µM (inconclusive).
Consider `CN(C)c1nc(C=C(C#N)C#N)c(Cl)n1-c1ccc(F)cc1`, for which the EC50 in the data set on BJ [16] was 4.83 µM (active); in the data set on BJ [17] it was 5 µM (active); with BJ [18], 5.12 µM (inconclusive); in [19] it was 4.24 µM (active); in data set [20] it was 27.8 µM (active); with HEK293 [21] it was > 59.6 µM (inactive). Further, the EC50 in the data set on HEK293 [22] was > 59.6 µM (inactive). Moreover, in data set [1], the AC50 is 3.92 µM (active).
As for `CCCCn1c(=N)n(CCOc2ccc(C)cc2)c2ccccc21`, the AC50 in data set [1] is 11.3 µM (active); with A-375 it was 18.3 µM (active).
Turning to `N=C(N)SCCc1cccc(CCSC(=N)N)c1`, the AC50 in data set [15] was 20 µM (inconclusive).
`CC1=C([N+](=O)[O-])C(c2cccc(Br)c2)C2=C(O)c3ccccc3C2=N1` (stereo unspecified): the EC50 with HEK293 [21] and in the data set on HEK293 [22] was > 59.6 µM (inactive) throughout.

The record behind these values is ChEMBL document CHEMBL1201862, “PubChem BioAssay data set” (2004).
